In US20180022780A1, “STABILIZATION ADRENOMEDULLIN DERIVATIVES AND USE THEREOF” (priority 2014, published 2018):
Bridge positions count the residues as written; N and C are the ends. Square brackets hold non-standard residues; d marks the D form. Peptide text beside a SMILES is read from it. * marks the point of attachment. Palmitoyl = CCCCCCCCCCCCCCCC(=O)*; NMeK = CN[C@@H](CCCCN)C(=O)O; Orn = NCCC[C@H](N)C(=O)O; Dab = NCC[C@H](N)C(=O)O; Dap = NC[C@H](N)C(=O)O

Tests used:
[1] = target: T1, human adrenomedullin-receptor (Homo sapiens, UniProt O60895+Q16602); experiment: Tests on a recombinant adrenomedullin-receptor reporter cell (CHO, aequorin luminescence); type: cell-based; conditions: Table 1, CHO cell line carrying the human adrenomedullin-receptor
T1 construct: expressed in transfected cells; host or cells: CHO (Chinese hamster ovary) recombinant reporter cell line with aequorin
T1 sequence (Q16602 23-461): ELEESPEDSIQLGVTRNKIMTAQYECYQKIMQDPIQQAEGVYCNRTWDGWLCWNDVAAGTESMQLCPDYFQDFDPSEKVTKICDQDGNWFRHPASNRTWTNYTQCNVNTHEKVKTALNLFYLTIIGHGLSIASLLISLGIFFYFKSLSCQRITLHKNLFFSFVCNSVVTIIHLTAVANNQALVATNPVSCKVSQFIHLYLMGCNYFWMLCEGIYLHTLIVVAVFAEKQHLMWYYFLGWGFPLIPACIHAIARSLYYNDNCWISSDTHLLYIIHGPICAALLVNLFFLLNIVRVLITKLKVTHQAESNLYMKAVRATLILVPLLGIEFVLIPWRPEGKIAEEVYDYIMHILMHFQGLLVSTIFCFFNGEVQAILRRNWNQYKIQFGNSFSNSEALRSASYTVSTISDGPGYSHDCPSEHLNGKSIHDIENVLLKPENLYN
T1 sequence (O60895 43-175): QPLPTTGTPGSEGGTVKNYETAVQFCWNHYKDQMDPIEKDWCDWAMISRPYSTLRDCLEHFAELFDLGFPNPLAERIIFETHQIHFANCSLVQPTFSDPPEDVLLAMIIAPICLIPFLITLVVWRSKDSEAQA
Method: Activation of the receptor by ligands was measured by aequorin luminescence. Construction of the cell line and measurement procedure has been described in detail [Wunder F., Rebmann A., Geerts A, and Kalthof B., Mol Pharmacol, 73, 1235-1243 (2008)]. In brief: Cells were seeded on opaque 384-well microtiter plates at a density of 4000 cells/well and were grown for 24 h. After removal of culture medium, cells were loaded for 3 h with 0.6 μg/ml coelenterazine in Ca^2+-free Tyrode solution (130 mM sodium chloride, 5 mM potassium chloride, 20 mM HEPES (4-(2-hydroxyethyl)-1-piperazineethanesulfonic acid), 1 mM magnesium chloride, and 4.8 mM sodium hydrogen carbonate, pH 7.4) supplemented with 0.2 mM 3-Isobutyl-1-methylxanthine (IBMX) in a cell culture incubator. Examples were added for 6 min in calcium^2+-free Tyrode solution containing 0.1% bovine serum albumin. Immediately before adding calcium^2+ to a final concentration of 3 mM measurement of the aequorin luminescence was started by use of a suitable luminometer. Luminescence was measured for 60 s. In a typical experiment compounds were tested in a concentration range of 1×10^−13 to 3×10^−6 M.

[2] = target: T2, CLR fused to EYFP and RAMP2 fused to ECFP (Homo sapiens, UniProt O60895+Q16602); experiment: cAMP assay (CRE luciferase reporter, HEK-293 cells transiently co-transfected with CLR and RAMP2); type: cell-based; conditions: Table 2, cAMP assay; HEK-293, CLR/RAMP2, CRE luciferase, 3 h stimulation, normalized to [G^14]ADM(14-52)
T2 construct: EYFP; ECFP; expressed in transfected cells; host or cells: HEK-293 cells, transient co-transfection
T2 sequence (Q16602 23-461): as the sequence (Q16602 23-461) above
T2 sequence (O60895 43-175): as the sequence (O60895 43-175) above
Method in brief: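 HEK-293 cells transiently co-transfected with CLR-EYFP, RAMP2-ECFP and a CRE-luc2P luciferase reporter were stimulated with ligands (eight concentrations, triplicate) for 3 h at 37 °C. Luminescence was corrected to 5 µM forskolin, normalized to [G^14]ADM(14-52) standard, and fitted by non-linear regression to dose-response curves.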

Row | SMILES | EC50 [1] | EC50 [2]
1 | CC[C@H](C)[C@H](NC(=O)[C@H](CCC(N)=O)NC(=O)[C@H](Cc1c[nH]cn1)NC(=O)[C@H](C)NC(=O)[C@H](CC(C)C)NC(=O)[C@H](CCCCN)NC(=O)[C@H](CCC(N)=O)NC(=O)[C@@H](NC(=O)[C@@H](NC(=O)[C@@H]1CCC(=O)NCCCC[C@H](NC(=O)CNC(=O)CN)C(=O)N[C@@H](CCCNC(=N)N)C(=O)N[C@@H](Cc2ccccc2)C(=O)NCC(=O)N[C@@H]([C@@H](C)O)C(=O)N1)[C@@H](C)O)C(C)C)C(=O)N[C@@H](Cc1ccc(O)cc1)C(=O)N[C@@H](CCC(N)=O)C(=O)N[C@@H](Cc1ccccc1)C(=O)N[C@H](C(=O)N[C@@H](CC(=O)O)C(=O)N[C@@H](CCCCN)C(=O)N[C@@H](CC(=O)O)C(=O)N[C@@H](CCCCN)C(=O)N[C@@H](CC(=O)O)C(=O)N[C@@H](CC(N)=O)C(=O)N[C@H](C(=O)N[C@@H](C)C(=O)N1CCC[C@H]1C(=O)N[C@@H](CCCNC(=N)N)C(=O)N[C@@H](CO)C(=O)N[C@@H](CCCCN)C(=O)N[C@H](C(=O)N[C@@H](CO)C(=O)N1CCC[C@H]1C(=O)N[C@@H](CCC(N)=O)C(=O)NCC(=O)N[C@@H](Cc1ccc(O)cc1)C(N)=O)[C@@H](C)CC)C(C)C)[C@@H](C)O [Example 2, ((2S,5S,11S,14S,23S)-23-(2-(2-aminoacetamido)acetamido)-5-benzyl-2-(3-guanidinopropyl)-11-((R)-1-hydroxyethyl)-3,6,9,12,17,24-hexaoxo-1,4,7,10,13,18-hexaazacyclotetracosane-14-carbonyl)-L-threonyl-ADM(22-52)] (H-GGKRFGTETVQKLAHQIYQFTDKDKDNVAPRSKISPQGY-NH2; lactam 3-8) | > 1000 nM | > 1000 nM
2 | CCCCCCCCCCCCCCCC(=O)NCCCC[C@H](N)C(=O)NCC(=O)N[C@H]1CNC(=O)CC[C@@H](C(=O)N[C@H](C(=O)N[C@H](C(=O)N[C@@H](CCC(N)=O)C(=O)N[C@@H](CCCCN)C(=O)N[C@@H](CC(C)C)C(=O)N[C@@H](C)C(=O)N[C@@H](Cc2c[nH]cn2)C(=O)N[C@@H](CCC(N)=O)C(=O)N[C@H](C(=O)N[C@@H](Cc2ccc(O)cc2)C(=O)N[C@@H](CCC(N)=O)C(=O)N[C@@H](Cc2ccccc2)C(=O)N[C@H](C(=O)N[C@@H](CC(=O)O)C(=O)N[C@@H](CCCCN)C(=O)N[C@@H](CC(=O)O)C(=O)N[C@@H](CCCCN)C(=O)N[C@@H](CC(=O)O)C(=O)N[C@@H](CC(N)=O)C(=O)N[C@H](C(=O)N[C@@H](C)C(=O)N2CCC[C@H]2C(=O)N[C@@H](CCCNC(=N)N)C(=O)N[C@@H](CO)C(=O)N(C)[C@@H](CCCCN)C(=O)N[C@H](C(=O)N[C@@H](CO)C(=O)N2CCC[C@H]2C(=O)N[C@@H](CCC(N)=O)C(=O)NCC(=O)N[C@@H](Cc2ccc(O)cc2)C(N)=O)[C@@H](C)CC)C(C)C)[C@@H](C)O)[C@@H](C)CC)C(C)C)[C@@H](C)O)NC(=O)[C@H]([C@@H](C)O)NC(=O)CNC(=O)[C@H](Cc2ccccc2)NC(=O)[C@H](CCCNC(=N)N)NC1=O [Example 27, ((3S,9S,12S,15S,21S)-15-(2-((S)-2-amino-6-palmitamidohexanamido)acetamido)-9-benzyl-12-(3-guanidinopropyl)-3-((R)-1-hydroxyethyl)-2,5,8,11,14,18-hexaoxo-1,4,7,10,13,17-hexaazacyclohenicosane-21-carbonyl)-L-threonyl-[N-Me-K^46]ADM(22-52)] (H-K(Palmitoyl)G[Dap]RFGTETVQKLAHQIYQFTDKDKDNVAPRS[NMeK]ISPQGY-NH2; lactam 3-8) |  | 3.4 nM

Further lines, results first:

Row | EC50 [1] | EC50 [2] | SMILES
3 | > 1000 nM | 112 nM | CC[C@H](C)[C@H](NC(=O)[C@H](CCC(N)=O)NC(=O)[C@H](Cc1c[nH]cn1)NC(=O)[C@H](C)NC(=O)[C@H](CC(C)C)NC(=O)[C@H](CCCCN)NC(=O)[C@H](CCC(N)=O)NC(=O)[C@@H](NC(=O)[C@@H](NC(=O)[C@@H]1CC(=O)NCC[C@H](NC(=O)CNC(=O)CN)C(=O)N[C@@H](CCCNC(=N)N)C(=O)N[C@@H](Cc2ccccc2)C(=O)NCC(=O)N[C@@H]([C@@H](C)O)C(=O)N1)[C@@H](C)O)C(C)C)C(=O)N[C@@H](Cc1ccc(O)cc1)C(=O)N[C@@H](CCC(N)=O)C(=O)N[C@@H](Cc1ccccc1)C(=O)N[C@H](C(=O)N[C@@H](CC(=O)O)C(=O)N[C@@H](CCCCN)C(=O)N[C@@H](CC(=O)O)C(=O)N[C@@H](CCCCN)C(=O)N[C@@H](CC(=O)O)C(=O)N[C@@H](CC(N)=O)C(=O)N[C@H](C(=O)N[C@@H](C)C(=O)N1CCC[C@H]1C(=O)N[C@@H](CCCNC(=N)N)C(=O)N[C@@H](CO)C(=O)N[C@@H](CCCCN)C(=O)N[C@H](C(=O)N[C@@H](CO)C(=O)N1CCC[C@H]1C(=O)N[C@@H](CCC(N)=O)C(=O)NCC(=O)N[C@@H](Cc1ccc(O)cc1)C(N)=O)[C@@H](C)CC)C(C)C)[C@@H](C)O [Example 5, ((2S,5S,11S,14S,20S)-20-(2-(2-aminoacetamido)acetamido)-5-benzyl-2-(3-guanidinopropyl)-11-((R)-1-hydroxyethyl)-3,6,9,12,16,21-hexaoxo-1,4,7,10,13,17-hexaazacyclohenicosane-14-carbonyl)-L-threonyl-ADM(22-52)] (H-GG[Dab]RFGTDTVQKLAHQIYQFTDKDKDNVAPRSKISPQGY-NH2; lactam 3-8)
4 | > 1000 nM | 303 nM | CC[C@H](C)[C@H](NC(=O)[C@H](CCC(N)=O)NC(=O)[C@H](Cc1c[nH]cn1)NC(=O)[C@H](C)NC(=O)[C@H](CC(C)C)NC(=O)[C@H](CCCCN)NC(=O)[C@H](CCC(N)=O)NC(=O)[C@@H](NC(=O)[C@@H](NC(=O)[C@@H]1CNC(=O)CC[C@H](NC(=O)CNC(=O)CN)C(=O)N[C@@H](CCCNC(=N)N)C(=O)N[C@@H](Cc2ccccc2)C(=O)NCC(=O)N[C@@H]([C@@H](C)O)C(=O)N1)[C@@H](C)O)C(C)C)C(=O)N[C@@H](Cc1ccc(O)cc1)C(=O)N[C@@H](CCC(N)=O)C(=O)N[C@@H](Cc1ccccc1)C(=O)N[C@H](C(=O)N[C@@H](CC(=O)O)C(=O)N[C@@H](CCCCN)C(=O)N[C@@H](CC(=O)O)C(=O)N[C@@H](CCCCN)C(=O)N[C@@H](CC(=O)O)C(=O)N[C@@H](CC(N)=O)C(=O)N[C@H](C(=O)N[C@@H](C)C(=O)N1CCC[C@H]1C(=O)N[C@@H](CCCNC(=N)N)C(=O)N[C@@H](CO)C(=O)N[C@@H](CCCCN)C(=O)N[C@H](C(=O)N[C@@H](CO)C(=O)N1CCC[C@H]1C(=O)N[C@@H](CCC(N)=O)C(=O)NCC(=O)N[C@@H](Cc1ccc(O)cc1)C(N)=O)[C@@H](C)CC)C(C)C)[C@@H](C)O [Example 6, ((3S,6S,12S,15S,18S)-18-(2-(2-aminoacetamido)acetamido)-12-benzyl-15-(3-guanidinopropyl)-6-((R)-1-hydroxyethyl)-5,8,11,14,17,21-hexaoxo-1,4,7,10,13,16-hexaazacyclohenicosane-3-carbonyl)-L-threonyl-ADM(22-52)] (H-GGERFGT[Dap]TVQKLAHQIYQFTDKDKDNVAPRSKISPQGY-NH2; lactam 3-8)
5 | > 1000 nM | > 1000 nM | CC[C@H](C)[C@H](NC(=O)[C@H](CCC(N)=O)NC(=O)[C@H](Cc1c[nH]cn1)NC(=O)[C@H](C)NC(=O)[C@H](CC(C)C)NC(=O)[C@H](CCCCN)NC(=O)[C@H](CCC(N)=O)NC(=O)[C@@H](NC(=O)[C@@H](NC(=O)[C@@H]1CC(=O)NCCC[C@H](NC(=O)CNC(=O)CN)C(=O)N[C@@H](CCCNC(=N)N)C(=O)N[C@@H](Cc2ccccc2)C(=O)NCC(=O)N[C@@H]([C@@H](C)O)C(=O)N1)[C@@H](C)O)C(C)C)C(=O)N[C@@H](Cc1ccc(O)cc1)C(=O)N[C@@H](CCC(N)=O)C(=O)N[C@@H](Cc1ccccc1)C(=O)N[C@H](C(=O)N[C@@H](CC(=O)O)C(=O)N[C@@H](CCCCN)C(=O)N[C@@H](CC(=O)O)C(=O)N[C@@H](CCCCN)C(=O)N[C@@H](CC(=O)O)C(=O)N[C@@H](CC(N)=O)C(=O)N[C@H](C(=O)N[C@@H](C)C(=O)N1CCC[C@H]1C(=O)N[C@@H](CCCNC(=N)N)C(=O)N[C@@H](CO)C(=O)N[C@@H](CCCCN)C(=O)N[C@H](C(=O)N[C@@H](CO)C(=O)N1CCC[C@H]1C(=O)N[C@@H](CCC(N)=O)C(=O)NCC(=O)N[C@@H](Cc1ccc(O)cc1)C(N)=O)[C@@H](C)CC)C(C)C)[C@@H](C)O [Example 9, ((2S,5S,11S,14S,21S)-21-(2-(2-aminoacetamido)acetamido)-5-benzyl-2-(3-guanidinopropyl)-11-((R)-1-hydroxyethyl)-3,6,9,12,16,22-hexaoxo-1,4,7,10,13,17-hexaazacyclodocosane-14-carbonyl)-L-threonyl-ADM(22-52)] (H-GG[Orn]RFGTDTVQKLAHQIYQFTDKDKDNVAPRSKISPQGY-NH2; lactam 3-8)
